A short description of data set [1]: Compound stability in human liver microsomes. The class given is in vitro ADME. The note with it: pH 7.4; for CLint scaled at 5 μM: liver microsomes, in vivo CLint extrapolated from human liver microsome incubation; for half-life at 5 μM: human liver microsomes 0.5 mg protein/mL, compound 5 μM, NADPH 1.0 mM, 37° C., read-out: Human T1/2. The procedure: (§1) The LC/MS/MS system used in the analysis consists of an Agilent 1200 Series vacuum degasser, binary pump, well-plate autosampler, thermostatted column compartment, the Agilent G6430 Triple Quadrupole Mass Spectrometer with an electrosprayionization (ESI) source. Quantitative analysis was carried out using MRM mode. The parameters for MRM transitions are in the Table A.
(§2) An Agilent XDB-C18, 2.1×30 mm, […] column was used for the analysis. 5 μL of the samples were injected. Analysis condition: The mobile phase was 0.1% formic acid in water (A) and 0.1% formic acid in methanol (B). The flow rate was 0.4 mL/min. And the gradient of Mobile phase was in the Table B.
(§3) Alternatively, an Agilent 6330 series LC/MS/MS spectrometer equipped with G1312A binary pumps, a G1367A autosampler and a G1314C UV detector were used in the analysis. An ESI source was used on the LC/MS/MS spectrometer. The analysis was done in positive ion mode as appropriate and the MRM transition for each analyte was optimized using standard solution. A Capcell MP-C18 100×4.6 mm I.D., […] column (Phenomenex, Torrance, Calif., USA) was used during the analysis. The mobile phase was 5 mM ammonia acetate, 0.1% MeOH in water (A): 5 mM ammonia acetate, 0.1% MeOH in acetonitrile (B) (70:30, v/v). The flow rate was 0.6 mL/min. Column was maintained at ambient temperature. 20 μL of the samples were injected.
(§4) Human or rat liver microsomes incubations were conducted in duplicate in polypropylene tubes. The typical incubation mixtures consisted of human or rat liver microsomes (0.5 mg protein/mL), compounds of interest (5 μM) and NADPH (1.0 mM) in a total volume of 200 μL potassium phosphate buffer (PBS, 100 mM, pH 7.4). Compounds were dissolved in DMSO and diluted with PBS such that the final concentration of DMSO was 0.05%. The enzymatic reactions were commenced with the addition of protein after a 3-min preincubation and incubated in a water bath open to the air at 37° C. Reactions were terminated at various time points (0, 5, 10, 15, 30, 60 min) by adding equal volume of ice-cold acetonitrile. The samples were stored at −80° C. until LC/MS/MS assays.
(§5) The concentrations of compounds in the incubation mixtures of human or rat liver microsomes were determined by a LC/MS/MS method. The ranges of the linearity in the concentration range were determined for each tested compounds.
(§6) A parallel incubation was performed using denatured microsomes as the negative control, and reactions were terminated at various time points (0, 15, 60 min) after incubation at 37° C.
(§7) Dextromethorphan (70 μM) was selected as the positive control, and reactions were terminated at various time points (0, 5, 10, 15, 30, 60 min) after incubation at 37° C. Both positive and negative control samples were included in each assay to ensure the integrity of the microsomal incubation system.
(§8) The concentrations of compounds in human or rat liver microsome incubations were plotted as a percentage of the relevant zero time point control for each reaction. The in vivo CLint were extrapolated (ref.: Naritomi, Y.; Terashita, S.; Kimura, S.; Suzuki, A.; Kagayama, A.; and Sugiyama, Y.; Prediction of human hepatic clearance from in vivo animal experiments and in vitro metabolic studies with liver microsomes from animals and humans. Drug Metab. Dispos., 2001, 29: 1316-1324).

The nature of data set [2]: Compound stability in rat liver microsomes. The data set is classed as in vitro ADME. The note with it: pH 7.4; for CLint scaled at 5 μM: liver microsomes, in vivo CLint extrapolated from rat liver microsome incubation; for half-life at 5 μM: rat liver microsomes 0.5 mg protein/mL, compound 5 μM, NADPH 1.0 mM, 37° C., read-out: Rat T1/2. How it is done: as §1, §2, §3, §4, §5, §6, §7, §8

Data set [3] is described as follows: Pharmacokinetic profiles in rats. The data set is classed as in vivo, rat. The note with it: for Cl/F / AUC(0-t) / half-life / Vd: iv dosing 1 mg/kg; for F: oral vs iv (iv 1 mg/kg; p.o. generally 5 or 10 mg/kg); for AUC(0-t) / half-life / Vd: rat, plasma; for Vd: read-out: Vss. The procedure:
The compounds disclosed herein are assessed in pharmacokinetic studies in mice, rats, dogs or monkeys. The compounds are administered as a water solution, 2% HPMC+1% TWEEN®80 in water solution, 5% DMSO+5% solutol in saline, 4% MC suspension or capsule. For the intravenous administration, the animals are generally given at 1 or 2 mg/kg dose. For the oral (p.o.) dosing, mice and rats are generally given 5 or 10 mg/kg dose, and dogs and monkeys are generally given 10 mg/kg dose. The blood samples (0.3 mL) are drawn at 0.25, 0.5, 1.0, 2.0, 3.0, 4.0, 6.0, 8.0, 12 and 24 h time points or 0.083, 0.25, 0.5, 1.0, 2.0, 4.0, 6.0, 8.0 and 24 h time points and centrifuged at 3,000 or 4000 rpm for 2 to 10 min. The plasma solutions are collected, stored at −20° C. or −70° C. until analyzed by LC/MS/MS as described above.

As for `CC[C@H](Nc1ncnc(N)c1-c1nc(C)no1)c1cc2cccc(Cl)c2c(=O)n1-c1ccccc1` [Ex. 3, (S)-3-(1-((6-amino-5-(3-methyl-1,2,4-oxadiazol-5-yl)pyrimidin-4-yl)amino)propyl)-8-chloro-2-phenylisoquinolin-1(2H)-one], in data set [1], the CLint scaled at 5 μM is 134 mL/min/kg and the half-life at 5 μM was 12.9 min. Also, in data set [2], the CLint scaled at 5 μM is 148 mL/min/kg and the half-life at 5 μM came out at 16.7 min. In data set [3], this compound had a Cl/F of 128 mL/min/kg, an F of 12.71%, an AUC(0-t) of 131 ng·h/mL and a half-life of 44.4 min. Further, the Vd in data set [3] amounted to 4.96 L/kg.
For `CC[C@H](Nc1ncnc(N)c1-c1nnc(C)o1)c1cc2cccc(C)c2c(=O)n1C1CC1` [Ex. 6, (S)-3-(1-((6-amino-5-(5-methyl-1,3,4-oxadiazol-2-yl)pyrimidin-4-yl)amino)propyl)-2-cyclopropyl-8-methylisoquinolin-1(2H)-one], in data set [1], the CLint scaled at 5 μM is 93.1 mL/min/kg and the half-life at 5 μM is 18.7 min. Further, in data set [2], the CLint scaled at 5 μM was 324 mL/min/kg and the half-life at 5 μM turned out to be 7.66 min. In data set [3], this compound gave a Cl/F of 62.3 mL/min/kg, an F of 48.66%, an area under the curve AUC(0-t) of 266 ng·h/mL and a half-life of 51.6 min. Moreover, in data set [3], the Vd is 4.08 L/kg.
`CC[C@H](Nc1ncnc(N)c1-c1nnc(C)o1)c1cc2cccc(Cl)c2c(=O)n1C1CC1` [Ex. 10, S)-3-(1-((6-amino-5-(5-methyl-1,3,4-oxadiazol-2-yl)pyrimidin-4-yl)aminopropyl)-8-chloro-2-cyclopropylisoquinolin-1(2H)-one]: in data set [1], the CLint scaled at 5 μM is 86.9 mL/min/kg and the half-life at 5 μM is 20 min. Also, in data set [2], the CLint scaled at 5 μM was 169 mL/min/kg and the half-life at 5 μM amounted to 14.7 min. For the same compound, in data set [3], the Cl/F was 50 mL/min/kg, the F is 81.33%, the AUC(0-t) came out at 333 ng·h/mL and the half-life was 86.4 min. The Vd in data set [3] was 5.35 L/kg.
In the case of `CC[C@H](Nc1ncnc(N)c1-c1nnn(C)n1)c1cc2cccc(Cl)c2c(=O)n1C1CC1` [Ex. 13, (S)-3-(1-((6-amino-5-(2-methyl-2H-tetrazol-5-yl)pyrimidin-4-yl)amino)propyl)-8-chloro-2-cyclopropylisoquinolin-1(2H)-one], in data set [1], the CLint scaled at 5 μM was 157 mL/min/kg and the half-life at 5 μM is 11.1 min. Moreover, in data set [2], the CLint scaled at 5 μM was 137 mL/min/kg and the half-life at 5 μM is 18.2 min. In data set [3], this compound had a Cl/F of 36.2 mL/min/kg, an F of 67.9%, an AUC(0-t) of 465 ng·h/mL and a half-life of 99.6 min. In addition, in data set [3], the Vd was found to be 4.42 L/kg.
Turning to `CCCCOC(=O)c1nc(-c2c(N)ncnc2N[C@@H](CC)c2cc3cccc(Cl)c3c(=O)n2C2CC2)nn1C` [Ex. 14, (S)-butyl 3-(4-amino-6-((1-(8-chloro-2-cyclopropyl-1-oxo-1,2-dihydro-isoquinolin-3-yl)propyl)amino)pyrimidin-5-yl)-1-methyl-1H-1,2,4-triazole-5-carboxylate], in data set [1], the CLint scaled at 5 μM was 225 mL/min/kg and the half-life at 5 μM came to 7.73 min. For the same compound, in data set [2], the CLint scaled at 5 μM was 125 mL/min/kg and the half-life at 5 μM came out at 19.9 min.
Take `C[C@H](Nc1ncnc(N)c1-c1nnn(C)n1)c1cc2cccc(Cl)c2c(=O)n1-c1ccccc1` [Ex. 15, (S)-3-(1-((6-amino-5-(2-methyl-2H-tetrazol-5-yl)pyrimidin-4-yl)amino)ethyl)-8-chloro-2-phenylisoquinolin-1(2H)-one]: in data set [1], the CLint scaled at 5 μM was 287 mL/min/kg and the half-life at 5 μM came to 6.06 min. In data set [2], the CLint scaled at 5 μM was 99.9 mL/min/kg and the half-life at 5 μM is 24.9 min. In data set [3], this compound gave a Cl/F of 22.7 mL/min/kg, an F of 48.92%, an AUC(0-t) of 758 ng·h/mL and a half-life of 51.6 min. Besides, in data set [3], the Vd amounted to 0.92 L/kg.
`CC[C@H](Nc1ncnc(N)c1-c1ncn(C)n1)c1cc2cccc(Cl)c2c(=O)n1C1CC1` [Ex. 20, (S)-3-(1-((6-amino-5-(1-methyl-1H-1,2,4-triazol-3-yl)pyrimidin-4-yl)amino)propyl)-8-chloro-2-cyclopropylisoquinolin-1(2H)-one]: in data set [1], the CLint scaled at 5 μM was 251 mL/min/kg and the half-life at 5 μM worked out at 6.93 min. In addition, in data set [2], the CLint scaled at 5 μM was 100 mL/min/kg and the half-life at 5 μM worked out at 24.9 min. Moreover, in data set [3], the Cl/F stood at 48.7 mL/min/kg, the F was found to be 64.61%, the AUC(0-t) turned out to be 341 ng·h/mL and the half-life was 48.6 min. Further, the Vd in data set [3] came to 2.65 L/kg.
Take `CC[C@H](Nc1ncnc(N)c1-c1noc(C)n1)c1cc2cccc(Cl)c2c(=O)n1C1CC1` [Ex. 21, (S)-3-(1-((6-amino-5-(5-methyl-1,2,4-oxadiazol-3-yl)pyrimidin-4-yl)amino)propyl)-8-chloro-2-cyclopropylisoquinolin-1(2H)-one]: in data set [1], the CLint scaled at 5 μM was 258 mL/min/kg and the half-life at 5 μM was 6.73 min. For the same compound, in data set [2], the CLint scaled at 5 μM is 130 mL/min/kg and the half-life at 5 μM was 19.2 min.
The matching figures for `Cc1noc(-c2c(N)ncnc2N[C@@H](C)c2cc3cccc(Cl)c3c(=O)n2-c2cccc(F)c2)n1` [Ex. 23, (S)-3-(1-((6-amino-5-(3-methyl-1,2,4-oxadiazol-5-yl)pyrimidin-4-yl)amino)ethyl)-8-chloro-2-(3-fluorophenyl)isoquinolin-1(2H)-one]: 479 mL/min/kg, 3.63 min, 456 mL/min/kg and 5.45 min.
`C[C@H](Nc1ncnc(N)c1-c1nnn(C)n1)c1cc2cccc(-c3cnn(C)c3)c2c(=O)n1-c1ccccc1` [Ex. 29, (S)-3-(1-((6-amino-5-(2-methyl-2H-tetrazol-5-yl)pyrimidin-4-yl)amino)ethyl)-8-(1-methyl-1H-pyrazol-4-yl)-2-phenylisoquinolin-1(2H)-one]: in data set [1], the CLint scaled at 5 μM was 19 mL/min/kg and the half-life at 5 μM is 91.5 min. In data set [2], the CLint scaled at 5 μM is 38.3 mL/min/kg and the half-life at 5 μM came to 64.9 min. In data set [3], this compound had a Cl/F of 10 mL/min/kg, an F of 80.6%, an AUC(0-t) of 1780 ng·h/mL and a half-life of 78 min. In addition, the Vd in data set [3] is 0.88 L/kg.

By CLint scaled is commonly meant the capacity of the preparation to metabolise the compound, expressed as a volume cleared per time. For orientation: AUC(0-t) means the area under the concentration-time curve up to a stated or last time point. Low readings indicate less exposure, high ones more exposure.

Values taken from patent US9512114B2, “Substituted aminopyrimidine compounds and methods of use” (Calitor Sciences, LLC, priority 2013, dated 2016).
